Experimental data as given in paper PMC7968374 (Bioorganic & medicinal chemistry, 2021).

Target: Hsp27c (Homo sapiens, UniProt P04792)
Experiment: STD-NMR binding experiment
Conditions: Figure S2

Chain of Hsp27c (P04792 79-176): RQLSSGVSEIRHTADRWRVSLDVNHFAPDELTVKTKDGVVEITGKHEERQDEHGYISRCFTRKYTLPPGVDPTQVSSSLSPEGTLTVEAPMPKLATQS

Compound: Nc1cccnc1Oc1ccc(F)cc1F [Compound 4, 2-(2,4-difluorophenoxy)pyridin-3-amine]
- binding to Hsp27c in STD-NMR: bound
